Reference: ChEMBL document CHEMBL3526109 (Drug Metab Dispos, 2011)

Assays:
[1] = system: Plasma; experiment: Drug level in cynomolgus monkey plasma assessed as compound formation treated with [14C]brivanib alaninate at 10 mg/kg, po administered as single dose via gavage measured after 6 hrs by HPLC analysis; type: ADME, organism-based, Macaca fascicularis; settings: in vivo
[2] = system: Plasma; experiment: Drug level in human plasma assessed as compound formation treated with [14C]brivanib alaninate at 800 mg, po administered as single dose via gavage measured after 12 hrs by HPLC analysis; type: ADME, organism-based; settings: in vivo
[3] = Drug excretion in cynomolgus monkey urine treated with [14C]brivanib alaninate at 10 mg/kg, po administered as single dose via gavage by HPLC analysis; type: ADME, organism-based, Macaca fascicularis; settings: in vivo
[4] = system: Plasma; experiment: Drug level in cynomolgus monkey plasma assessed as compound formation treated with [14C]brivanib alaninate at 10 mg/kg, po administered as single dose via gavage measured after 12 hrs by HPLC analysis; type: ADME, organism-based, Macaca fascicularis; settings: in vivo
[5] = Drug excretion in Sprague-Dawley rat urine treated with [14C]brivanib alaninate at 100 mg/kg, po administered as single dose via gavage by HPLC analysis; type: ADME, organism-based; settings: in vivo
[6] = system: Plasma; experiment: Drug level in human plasma assessed as compound formation treated with [14C]brivanib alaninate at 800 mg, po administered as single dose via gavage measured after 1 hr by HPLC analysis; type: ADME, organism-based; settings: in vivo
[7] = system: Plasma; experiment: Drug level in human plasma assessed as compound formation treated with [14C]brivanib alaninate at 800 mg, po administered as single dose via gavage measured after 4 hrs by HPLC analysis; type: ADME, organism-based; settings: in vivo
[8] = Drug excretion in human feces treated with [14C]brivanib alaninate at 800 mg, po administered as single dose […] by HPLC analysis; type: ADME, organism-based; settings: in vivo
[9] = system: Plasma; experiment: Drug level in Sprague-Dawley rat plasma assessed as compound formation treated with [14C]brivanib alaninate at 100 mg/kg, po administered as single dose via gavage measured after 2 hrs by mass spectrometry; type: ADME, organism-based; settings: in vivo
[10] = system: Plasma; experiment: Drug level in Sprague-Dawley rat plasma assessed as compound formation treated with [14C]brivanib alaninate at 100 mg/kg, po administered as single dose via gavage measured after 6 hrs by mass spectrometry; type: ADME, organism-based; settings: in vivo
[11] = Drug excretion in bile duct-cannulated cynomolgus monkey bile treated with [14C]brivanib alaninate at 10 mg/kg, po administered as single dose via gavage by HPLC analysis; type: ADME, organism-based, Macaca fascicularis; settings: in vivo
[12] = system: Plasma; experiment: Drug level in cynomolgus monkey plasma assessed as compound formation treated with [14C]brivanib alaninate at 10 mg/kg, po administered as single dose via gavage measured after 1 hr by HPLC analysis; type: ADME, organism-based, Macaca fascicularis; settings: in vivo
[13] = Drug level in bile duct-cannulated rat bile treated with [14C]brivanib alaninate at 100 mg/kg, po administered as single dose via gavage by mass spectrometry; type: ADME, organism-based; settings: in vivo
[14] = system: Plasma; experiment: Drug level in human plasma assessed as compound formation treated with [14C]brivanib alaninate at 800 mg, po administered as single dose via gavage measured after 2 hrs by HPLC analysis; type: ADME, organism-based; settings: in vivo
[15] = system: Plasma; experiment: Drug level in cynomolgus monkey plasma assessed as compound formation treated with [14C]brivanib alaninate at 10 mg/kg, po administered as single dose via gavage measured after 4 hrs by HPLC analysis; type: ADME, organism-based, Macaca fascicularis; settings: in vivo
[16] = system: Plasma; experiment: Drug level in cynomolgus monkey plasma assessed as compound formation treated with [14C]brivanib alaninate at 10 mg/kg, po administered as single dose via gavage measured after 2 hrs by HPLC analysis; type: ADME, organism-based, Macaca fascicularis; settings: in vivo
[17] = Drug excretion in Sprague-Dawley rat feces treated with [14C]brivanib alaninate at 100 mg/kg, po administered as single dose via gavage by HPLC analysis; type: ADME, organism-based; settings: in vivo
[18] = Drug excretion in cynomolgus monkey feces treated with [14C]brivanib alaninate at 10 mg/kg, po administered as single dose via gavage by HPLC analysis; type: ADME, organism-based, Macaca fascicularis; settings: in vivo
[19] = system: Plasma; experiment: Drug level in human plasma assessed as compound formation treated with [14C]brivanib alaninate at 800 mg, po administered as single dose via gavage measured after 8 hrs by HPLC analysis; type: ADME, organism-based; settings: in vivo
[20] = Drug excretion in human urine treated with [14C]brivanib alaninate at 800 mg, po administered as single dose […] by HPLC analysis; type: ADME, organism-based; settings: in vivo
[21] = system: Plasma; experiment: Drug level in Sprague-Dawley rat plasma assessed as compound formation treated with [14C]brivanib alaninate at 100 mg/kg, po administered as single dose via gavage measured after 1 hr by mass spectrometry; type: ADME, organism-based; settings: in vivo
[22] = biological target: Fibroblast growth factor receptor 1 (Homo sapiens, UniProt P11362); experiment: Inhibition of human recombinant FGFR-1
[23] = system: Cynomolgus monkey; experiment: Drug uptake in cynomolgus monkey plasma treated with [14C]brivanib alaninate assessed as AUC (0 to 12 hrs) of total radio activity at 10 mg/kg, po administered as single oral dose by HPLC analysis; type: ADME, organism-based, Macaca fascicularis; settings: in vivo
[24] = system: Plasma; experiment: Drug level in Sprague-Dawley rat plasma assessed as compound formation treated with [14C]brivanib alaninate at 100 mg/kg, po administered as single dose via gavage measured after 1 hr by HPLC analysis; type: ADME, organism-based; settings: in vivo
[25] = biological target: Vascular endothelial growth factor receptor 2 (Homo sapiens, UniProt P35968); experiment: Inhibition of human recombinant VEGFR-2
[26] = system: Homo sapiens; experiment: AUC (0 to 12 hrs) human plasma treated with [14C]brivanib alaninate at 800 mg, po administered as single oral dose by HPLC analysis; type: ADME, organism-based; settings: in vivo
[27] = system: Cynomolgus monkey; experiment: AUC (0 to 12 hrs) cynomolgus monkey plasma treated with [14C]brivanib alaninate at 10 mg/kg, po administered as single oral dose by HPLC analysis; type: ADME, organism-based, Macaca fascicularis; settings: in vivo
[28] = system: Plasma; experiment: Drug level in Sprague-Dawley rat plasma assessed as compound formation treated with [14C]brivanib alaninate at 100 mg/kg, po administered as single dose via gavage measured after 2 hrs by HPLC analysis; type: ADME, organism-based; settings: in vivo
[29] = system: Plasma; experiment: Drug level in Sprague-Dawley rat plasma assessed as compound formation treated with [14C]brivanib alaninate at 100 mg/kg, po administered as single dose via gavage measured after 6 hrs by HPLC analysis; type: ADME, organism-based; settings: in vivo
[30] = system: Rattus norvegicus; experiment: Drug uptake in Sprague-Dawley rat plasma treated with [14C]brivanib alaninate assessed as AUC (0 to 6 hrs) of total radio activity at 100 mg/kg, po administered as single oral dose by HPLC analysis; type: ADME, organism-based; settings: in vivo
[31] = system: Rattus norvegicus; experiment: AUC (0 to 6 hrs) Sprague-Dawley rat plasma treated with [14C]brivanib alaninate at 100 mg/kg, po administered as single oral dose by HPLC analysis; type: ADME, organism-based; settings: in vivo
[32] = Drug excretion in bile duct-cannulated rat bile treated with [14C]brivanib alaninate at 100 mg/kg, po administered as single dose via gavage by HPLC analysis; type: ADME, organism-based; settings: in vivo
[33] = system: Homo sapiens; experiment: Drug uptake in human plasma treated with [14C]brivanib alaninate assessed as AUC (0 to 12 hrs) of total radio activity at 800 mg, po administered as single oral dose by HPLC analysis; type: ADME, organism-based; settings: in vivo
[34] = Drug level in cynomolgus monkey urine treated with [14C]brivanib alaninate at 10 mg/kg, po administered as single dose via gavage by mass spectrometry; type: ADME, organism-based, Macaca fascicularis; settings: in vivo
[35] = system: Cynomolgus monkey; experiment: AUC (0 to t) in cynomolgus monkey plasma treated with [14C]brivanib alaninate at 10 mg/kg, po administered as single dose via gavage by LC-MS/MS analysis; type: ADME, organism-based, Macaca fascicularis; settings: in vivo
[36] = system: Rattus norvegicus; experiment: AUC (0 to t) in Sprague-Dawley rat plasma treated with [14C]brivanib alaninate at 100 mg/kg, po administered as single dose via gavage by LC-MS/MS analysis; type: ADME, organism-based; settings: in vivo
[37] = system: Homo sapiens; experiment: AUC (0 to t) in human plasma treated with [14C]brivanib alaninate at 800 mg, po administered as single dose […] by LC-MS/MS analysis; type: ADME, organism-based; settings: in vivo
[38] = system: Homo sapiens; experiment: Cmax in human plasma treated with [14C]brivanib alaninate at 800 mg, po administered as single dose […] by LC-MS/MS analysis; type: ADME, organism-based; settings: in vivo
[39] = system: Rattus norvegicus; experiment: Tmax in Sprague-Dawley rat plasma treated with [14C]brivanib alaninate at 100 mg/kg, po administered as single dose via gavage by LC-MS/MS analysis; type: ADME, organism-based; settings: in vivo
[40] = system: Liver microsome; experiment: Drug metabolism in human liver microsomes assessed as (R)-1-(4-(4-fluoro-2-(hydroxymethyl)-1H-indol-5-yloxy)-5-methylpyrrolo[1,2-f][1,2,4]triazin-6-yloxy)propan-2-ol formation by LC-MS/MS analysis in presence of NADPH; type: ADME
[41] = system: Rattus norvegicus; experiment: Cmax in Sprague-Dawley rat plasma treated with [14C]brivanib alaninate at 100 mg/kg, po administered as single dose via gavage by LC-MS/MS analysis; type: ADME, organism-based; settings: in vivo
[42] = system: Cynomolgus monkey; experiment: Tmax in cynomolgus monkey plasma treated with [14C]brivanib alaninate at 10 mg/kg, po administered as single dose via gavage by LC-MS/MS analysis; type: ADME, organism-based, Macaca fascicularis; settings: in vivo
[43] = system: Homo sapiens; experiment: Tmax in human plasma treated with [14C]brivanib alaninate at 800 mg, po administered as single dose […] by LC-MS/MS analysis; type: ADME, organism-based; settings: in vivo
[44] = system: Cynomolgus monkey; experiment: Cmax in cynomolgus monkey plasma treated with [14C]brivanib alaninate at 10 mg/kg, po administered as single dose via gavage by LC-MS/MS analysis; type: ADME, organism-based, Macaca fascicularis; settings: in vivo

Sequence of Vascular endothelial growth factor receptor 2 (P35968 whole entry): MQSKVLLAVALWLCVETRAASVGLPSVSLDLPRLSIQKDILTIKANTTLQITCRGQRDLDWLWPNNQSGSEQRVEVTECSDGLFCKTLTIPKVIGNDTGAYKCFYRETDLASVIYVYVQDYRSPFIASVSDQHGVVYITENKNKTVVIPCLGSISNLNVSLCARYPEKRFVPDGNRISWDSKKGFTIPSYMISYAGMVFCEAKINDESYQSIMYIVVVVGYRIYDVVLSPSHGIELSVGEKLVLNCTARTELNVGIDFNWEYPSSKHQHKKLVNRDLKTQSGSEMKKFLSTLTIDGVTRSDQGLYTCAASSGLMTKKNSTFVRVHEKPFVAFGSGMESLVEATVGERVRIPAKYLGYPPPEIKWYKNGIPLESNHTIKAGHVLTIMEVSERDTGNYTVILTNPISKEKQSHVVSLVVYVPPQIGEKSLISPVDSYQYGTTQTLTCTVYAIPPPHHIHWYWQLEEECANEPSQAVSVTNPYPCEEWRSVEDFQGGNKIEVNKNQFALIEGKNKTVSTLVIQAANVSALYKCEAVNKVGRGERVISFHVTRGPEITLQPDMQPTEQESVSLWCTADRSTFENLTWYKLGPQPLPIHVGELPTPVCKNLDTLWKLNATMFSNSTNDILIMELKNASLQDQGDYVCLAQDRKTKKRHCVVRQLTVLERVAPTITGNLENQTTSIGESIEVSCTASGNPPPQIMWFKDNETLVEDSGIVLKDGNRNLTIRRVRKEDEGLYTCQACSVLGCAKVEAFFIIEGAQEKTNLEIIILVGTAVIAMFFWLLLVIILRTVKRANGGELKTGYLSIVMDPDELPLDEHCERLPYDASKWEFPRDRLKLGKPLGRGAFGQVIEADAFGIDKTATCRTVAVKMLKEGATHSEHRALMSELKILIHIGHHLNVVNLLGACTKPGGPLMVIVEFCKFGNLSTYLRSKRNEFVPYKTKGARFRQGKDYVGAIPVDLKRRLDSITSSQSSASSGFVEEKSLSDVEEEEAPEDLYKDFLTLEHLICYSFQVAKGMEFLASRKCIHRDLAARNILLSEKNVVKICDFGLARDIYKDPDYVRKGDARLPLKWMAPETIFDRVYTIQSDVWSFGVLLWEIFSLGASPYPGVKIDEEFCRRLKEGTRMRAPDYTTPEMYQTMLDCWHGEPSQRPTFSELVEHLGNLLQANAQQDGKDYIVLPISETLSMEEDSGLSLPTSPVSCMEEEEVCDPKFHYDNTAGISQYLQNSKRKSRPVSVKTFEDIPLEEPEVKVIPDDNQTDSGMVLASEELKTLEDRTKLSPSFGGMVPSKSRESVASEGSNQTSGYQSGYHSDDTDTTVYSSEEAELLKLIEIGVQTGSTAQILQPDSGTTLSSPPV
Sequence of Fibroblast growth factor receptor 1 (P11362 whole entry): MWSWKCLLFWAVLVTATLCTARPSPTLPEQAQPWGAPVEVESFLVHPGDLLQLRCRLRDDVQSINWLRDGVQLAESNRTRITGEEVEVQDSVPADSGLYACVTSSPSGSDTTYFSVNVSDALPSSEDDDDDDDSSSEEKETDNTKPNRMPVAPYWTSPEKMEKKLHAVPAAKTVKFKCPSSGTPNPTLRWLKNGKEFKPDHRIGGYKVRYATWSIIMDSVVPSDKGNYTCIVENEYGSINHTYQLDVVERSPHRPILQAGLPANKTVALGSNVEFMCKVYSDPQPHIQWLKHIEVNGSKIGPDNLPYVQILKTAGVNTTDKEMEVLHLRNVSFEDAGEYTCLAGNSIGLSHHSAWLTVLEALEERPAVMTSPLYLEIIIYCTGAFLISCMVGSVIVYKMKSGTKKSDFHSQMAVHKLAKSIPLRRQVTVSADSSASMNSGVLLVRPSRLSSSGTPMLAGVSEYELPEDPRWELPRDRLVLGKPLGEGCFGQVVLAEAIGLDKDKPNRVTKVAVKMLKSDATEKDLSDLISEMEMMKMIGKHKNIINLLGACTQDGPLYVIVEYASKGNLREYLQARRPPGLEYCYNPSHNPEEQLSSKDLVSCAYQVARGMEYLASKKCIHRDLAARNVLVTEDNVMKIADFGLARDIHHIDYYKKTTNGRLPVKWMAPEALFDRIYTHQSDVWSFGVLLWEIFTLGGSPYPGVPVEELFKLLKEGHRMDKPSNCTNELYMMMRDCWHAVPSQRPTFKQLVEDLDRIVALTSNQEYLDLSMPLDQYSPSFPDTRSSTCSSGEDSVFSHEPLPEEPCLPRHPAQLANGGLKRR

| Structure (SMILES) | Compound recovery [1] | Compound recovery [2] | Compound recovery [3] | Compound recovery [4] | Compound recovery [5] | Compound recovery [6] | Compound recovery [7] | Compound recovery [8] | Compound recovery [11] | Compound recovery [12] | Compound recovery [14] | Compound recovery [15] | Compound recovery [16] | Compound recovery [17] | Compound recovery [18] | Compound recovery [19] | Compound recovery [20] | AUC metabolite/AUC radiolabel [23] | Compound recovery [24] | Compound recovery [32] | other results |
| --- | --- | --- | --- | --- | --- | --- | --- | --- | --- | --- | --- | --- | --- | --- | --- | --- | --- | --- | --- | --- | --- |
| Cc1cc2c(F)c(Oc3ncnn4cc(OC[C@@H](C)O[C@@H]5O[C@H](C(=O)O)[C@@H](O)[C@H](O)[C@H]5O)c(C)c34)ccc2[nH]1 | 0.9% | metabolite_not_detected | 0.3% | metabolite_not_detected | metabolite_not_detected | 2.6% | metabolite_not_detected | metabolite_not_detected | 0.6% | 7.2% | 2.3% | 1.9% | 2.2% | metabolite_not_detected | metabolite_not_detected | metabolite_not_detected | 1.1% | – | – | – | Compound recovery [9]: metabolite_detected; Compound recovery [10]: metabolite_detected; Compound recovery [13]: metabolite_detected; Compound recovery [21]: metabolite_detected |
| Cc1c(OC[C@@H](C)O)cn2ncnc(Oc3ccc4[nH]c(C(=O)O)cc4c3F)c12 | 6.9% | 4.6% | 1.1% | 3.5% | 0.5% | 6.8% | 11.4% | 7.4% | 10.5% | 3.1% | 7.6% | 8.6% | 6.4% | 12.8% | 22% | 4.9% | 0.4% | 7.2% | 5.1% | 0.9% | IC50 [22]: > 30 µM; IC50 [25]: > 30 µM; AUC [26]: 4119.3 ugequiv/l.hr; AUC [27]: 5006 ugequiv/l.hr; Compound recovery [28]: 5.3%; Compound recovery [29]: 5.3%; AUC metabolite/AUC radiolabel [30]: 9.2%; AUC [31]: 12825.3 ugequiv/l.hr; AUC metabolite/AUC radiolabel [33]: 6.3% |
| Cc1c(OC[C@@H](C)OS(=O)(=O)O)cn2ncnc(Oc3ccc4[nH]c(C(=O)O)cc4c3F)c12 | – | – | – | – | metabolite_not_detected | – | – | 26.6% | 4.9% | – | – | – | – | 5.7% | 4% | – | 2.4% | – | – | 2.5% | Compound recovery [34]: metabolite_detected |
| Cc1cc2c(F)c(Oc3ncnn4cc(OC[C@@H](C)O)c(C)c34)ccc2[nH]1 [BRIVANIB] | 60.8% | 38% | metabolite_not_detected | 71.9% | metabolite_not_detected | 72.4% | 57.1% | 7.5% | metabolite_not_detected | 70.7% | 56.9% | 44.2% | 62.7% | 1.8% | 6.5% | 46.7% | metabolite_not_detected | 61.4% | 22% | metabolite_not_detected | AUCt [35]: 49000 ng·h/mL; AUCt [36]: 35500 ng·h/mL; AUCt [37]: 45900 ng·h/mL; AUC [26]: 30257.7 ugequiv/l.hr; AUC [27]: 42587.2 ugequiv/l.hr; Compound recovery [28]: 15.8%; Compound recovery [29]: 14.3%; Cmax [38]: 6100 ng/mL; Tmax [39]: 1 h; AUC metabolite/AUC radiolabel [30]: 17%; Compound recovery [40]: metabolite_detected; AUC [31]: 23709.8 ugequiv/l.hr; Cmax [41]: 6400 ng/mL; Tmax [42]: 2 h; Tmax [43]: 1 h; Cmax [44]: 6200 ng/mL; AUC metabolite/AUC radiolabel [33]: 46.1% |
